Experimental data from ChEMBL document CHEMBL1123413, “Synthesis and biological evaluation of 1-(1,2-benzisothiazol-3-yl)- and (1,2-benzisoxazol-3-yl)piperazine derivatives as potential antipsychotic agents” (J Med Chem, 1986).

Legend:
Mus musculus = species: Mus musculus; experiment: Compound was tested for inhibition of spontaneous motor activity in mouse.; type: functional
[1] = molecular target: T1, Adrenergic receptor alpha-1 (Rattus norvegicus, UniProt P15823+P23944+P43140)
T1 sequence (P15823 whole entry): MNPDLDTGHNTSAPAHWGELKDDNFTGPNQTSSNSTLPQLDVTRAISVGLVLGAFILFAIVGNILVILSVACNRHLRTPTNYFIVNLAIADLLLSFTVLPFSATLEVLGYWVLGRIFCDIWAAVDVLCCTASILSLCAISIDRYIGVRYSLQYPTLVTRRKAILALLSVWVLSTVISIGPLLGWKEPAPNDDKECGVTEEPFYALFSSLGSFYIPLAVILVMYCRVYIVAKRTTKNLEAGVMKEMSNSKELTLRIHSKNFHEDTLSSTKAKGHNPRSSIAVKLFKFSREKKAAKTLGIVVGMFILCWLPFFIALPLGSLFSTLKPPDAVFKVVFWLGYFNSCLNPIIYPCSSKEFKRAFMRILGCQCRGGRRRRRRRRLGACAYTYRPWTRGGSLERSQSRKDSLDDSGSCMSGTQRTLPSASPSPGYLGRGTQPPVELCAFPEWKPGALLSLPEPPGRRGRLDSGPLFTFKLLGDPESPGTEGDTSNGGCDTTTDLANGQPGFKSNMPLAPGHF
T1 sequence (P23944 whole entry): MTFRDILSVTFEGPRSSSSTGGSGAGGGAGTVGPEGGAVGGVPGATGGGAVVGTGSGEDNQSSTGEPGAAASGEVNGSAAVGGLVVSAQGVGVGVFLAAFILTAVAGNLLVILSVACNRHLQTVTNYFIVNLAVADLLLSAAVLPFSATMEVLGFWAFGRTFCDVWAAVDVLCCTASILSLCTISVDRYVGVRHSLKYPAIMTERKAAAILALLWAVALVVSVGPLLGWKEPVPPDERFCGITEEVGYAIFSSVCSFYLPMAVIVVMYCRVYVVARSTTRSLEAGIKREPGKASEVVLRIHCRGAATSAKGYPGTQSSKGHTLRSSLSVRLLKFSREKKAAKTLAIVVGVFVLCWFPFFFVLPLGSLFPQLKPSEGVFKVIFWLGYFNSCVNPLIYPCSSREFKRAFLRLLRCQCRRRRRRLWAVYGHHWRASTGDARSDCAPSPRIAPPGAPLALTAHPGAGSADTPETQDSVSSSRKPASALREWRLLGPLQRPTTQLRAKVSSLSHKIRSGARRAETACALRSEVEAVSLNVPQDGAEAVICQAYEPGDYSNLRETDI
T1 sequence (P43140 whole entry): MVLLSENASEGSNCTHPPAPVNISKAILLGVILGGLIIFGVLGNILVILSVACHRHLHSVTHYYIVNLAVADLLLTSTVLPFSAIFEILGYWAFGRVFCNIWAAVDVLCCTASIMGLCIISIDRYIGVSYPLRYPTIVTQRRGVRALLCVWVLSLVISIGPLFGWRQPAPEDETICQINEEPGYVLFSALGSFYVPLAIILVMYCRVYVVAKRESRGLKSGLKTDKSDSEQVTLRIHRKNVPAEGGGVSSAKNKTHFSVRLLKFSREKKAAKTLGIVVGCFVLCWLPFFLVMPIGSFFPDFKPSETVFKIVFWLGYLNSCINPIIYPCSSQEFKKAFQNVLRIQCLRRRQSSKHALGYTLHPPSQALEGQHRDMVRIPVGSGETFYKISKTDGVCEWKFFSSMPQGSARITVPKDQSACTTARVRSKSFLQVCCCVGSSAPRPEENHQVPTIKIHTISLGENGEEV
Description: In vitro affinity for cortical alpha-1 adrenergic receptor labelled with [3H]WB-4101

Cl.O=C1CC2(CCCC2)CC(=O)N1CCCCN1CCN(c2nsc3ccccc23)CC1 [TIOSPIRONE HYDROCHLORIDE]
ED50 (Mus musculus): 17.3 mg/kg | IC50 [1]: 47 nM
